Assay results as given in patent publication US5985926A, “Method for inhibiting intracellular viral replication” (Cell Therapeutics, Inc., priority 1997, dated 1999).
“Also recorded” adds a separate entry of the source. Where two headings read alike, the source gives them in different places.

What was measured:
[1] = tested on: HIV-1 in U1 cells (constitutive expression); assay: Constitutive HIV-1 p24 antigen expression in chronically infected U1 cells; format: cell-based, HIV-1; human cells; conditions: for suppression of constitutive HIV-1 expression (p24): U1 cells plated at high density, in words
Description: (§1) Another assay examined the effect of compounds on chronically HIV-1 infected U1 cells. A relatively high density of U1 cells at 10^4 cells/well were incubated in the absence or presence of compounds for 4 days. HIV-1 p24 antigen expression in the culture media was measured by using a ELISA kit (Abbott). Alternatively, U1 cells were plated at a relatively low density of 2×10^3 cell/well plus or minus TNF at 20 pg/ml and plus or minus compounds. The expression of HIV-1 p24 antigen in culture media was measured by ELISA four days later.
(§2) Stable cell lines 293tar, 293tat and 293tat2 were generated by transfections using conditions described in (Tate et al., FASEB J. 4:227-231, 1990) with the plasmid pHIV.AP alone or along with either pHIV.tat or pSV2tat72, respectively. The assay of HIV-1 p24 antigen expression in the chronically HIV-1-infected promonocytic line U1 after 4 days and in acutely infected peripheral blood lymphocytes (PBL) after 7 days were described (Peterson et al., J. Clin. Invest. 89:574-580, 1992, and Brighty et al., Proc Natl. Acad. Sci. USA 88:7802-7805, 1991).
(§3) This example illustrates that CT2576 inhibited both constitutive and cytokine-induced HIV expression in a chronically-infected U1 cell line. A chronically HIV-1 infected human promonocyte cell line, U1 (Poli et al., J. Exp. Med. 172:151-158, 1990), was used as a model to see if the inhibitory effect of CT2576 on HIV-LTR driven reporter gene expression could be extended to block HIV replication per se in infected cells. TNF-α and IL-6 have been reported to upregulate the expression of HIV-1 in U1 cells (Poli et al., Proc Natl. Acad. Sci. USA 91:108-112, 1994). U1 cells were plated onto 24-well microtiter plates to study the dose-response effect of CT2576 on the constitutive (10^4 cells/well), TNF-α or IL-6 mediated (2×10^3 cells/well) expression of HIV-1. CT2576 was capable of inhibiting the constitutive, the TNF-α mediated, as well as the IL-6 mediated expression of HIV in U1 cells with an IC50 value of less than 1 μM (FIG. 17).

293-EBNA cells = assay: Viability of 293-EBNA cells, Alamar Blue; format: cell-based, human
Procedure, shortened: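 Viability read with Alamar Blue, a vital dye reduced by mitochondrial dehydrogenases to a soluble product. Signal quantified as the absorbance difference between A570 and A600.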

U1 cells = assay: Cytotoxicity in U1 cells; format: cell-based, human
Text: We studied the effect of CT-2576 on HIV expression in a chronically HIV-1 infected promonocytic U1 cell line (Folks et al., Science 238:800-802, 1987). […] TNF-α and other cytokines can induce HIV expression in U1 cells. U1 cells also express HIV constitutively when grown to a relatively high density. […] An inhibitor of viral reverse transcriptase is expected to only protect new cells from becoming infected but not to affect viral production from cells already infected with HIV. […] While TNF-α induces HIV expression through activation of NFκB, IL-6 and IL-1 also stimulates HIV expression through other pathways independent of NFκB activation in U1 cells.

[2] = tested on: HIV-1 in U1 cells (TNF-α mediated expression); assay: TNF-α-mediated HIV-1 p24 antigen expression in chronically infected U1 cells; format: cell-based, HIV-1; human cells; conditions: for suppression of TNFα-mediated HIV-1 expression (p24): in words
Description: as §1, §2, §3

293tat cells = assay: Viability of 293tat cells, Alamar Blue; format: cell-based, human
Description: 293tat cells, a cell line stably transfected with the expression plasmids pHIV.AP and pHIV.tat, were plated onto 96-well microtiter plates at 2000 cells per well. The media were changed the next day and CT2576 was added at the indicated concentrations to the fresh media with or without TNF-α (20 ng/ml). 2 μl of medium from each well was used for AP assay 24 hr later. After culture media were withdrawn for AP assay, cytotoxicity was measured for the same cell cultures using an indicator dye, Alamar Blue™, that would change color in response to the reduction potential of cell medium due to cell growth. The left y-axis refers to the absorbance value of the reduced form of Alamar Blue™ at 570 nm with the background absorbance at 600 nm from the oxidized form of Alamar Blue™ subtracted. Each data point represents the mean of triplicate samples with error bar indicating the standard deviation of the mean.
The effect of CT2576 on HIV promoter activity in 293tat cells, with the HIV.AP construct cotransfected with pHIV.tat, is shown in FIG. 15. CT2576 inhibited AP reporter gene expression by 50% with an inhibition constant (IC50) in the range of 10 μM with or without TNF-α induction. The inhibition of AP expression is the result of two events: a decrease in AP expression and a decrease in tat expression and therefore lower tat protein levels for transactivation. […]

| Compound | suppression of constitutive HIV-1 expression (p24) [1] | cytotoxic effect on 293-EBNA cells (Alamar Blue) (293-EBNA cells) | cytotoxicity in U1 cells at 25 μM (U1 cells; 25 μM, FIG. 12 bottom panel, TNFα) | suppression of TNFα-mediated HIV-1 expression (p24) ([2]; U1 cells) | IC50 ([1]; Human immunodeficiency virus 1, 96 h, read-out: IC50, constitutive HIV expression, U1 cells, 4 days) | IC50 ([1]; read-out: IC50, constitutive HIV expression, U1 cells, 4 days) | toxic concentration (not toxic at concentrations up to), 293-EBNA cells (293-EBNA cells) | cytotoxicity in U1 cells, trypan-blue dye exclusion (U1 cells; trypan-blue dye exclusion assay) | cytotoxic concentration (not cytotoxic at concentrations up to), 293tat cells (293tat cells; Alamar Blue) | cytotoxic effect, 293tat cells (293tat cells; in words) | IC50 ([2]; Human immunodeficiency virus 1, 96 h, read-out: IC50, TNF-α mediated HIV expression, U1 cells, 4 days) | IC50 ([2]; U1 cells, 4 days, read-out: IC50, TNF-α mediated HIV expression) |
| --- | --- | --- | --- | --- | --- | --- | --- | --- | --- | --- | --- | --- |
| CCCCCCCCNCC(O)CCCCCCCCCN1C(=O)CCN(C)C1=O (centres unmarked) [CT1829, 3-(11-octylamino-10-hydroxyundecyl)-1-methyldihydrouracil] | suppressed constitutive HIV-1 expression | no significant cytotoxic effect | some cytotoxicity | suppressed HIV-1 expression | – | – | – | – | – | – | – | – |
| CCCCCCCCNCC(O)CCCCCCCCCn1c(=O)c2c(ncn2C)n(C)c1=O (centres unmarked) [CT2576, 1-(11-octylamino-10-hydroxyundecyl)-3,7-dimethylxanthine] | the most effective; also recorded: inhibited; also recorded: suppressed constitutive HIV-1 expression | – | – | suppressed HIV-1 expression; also recorded: the most effective; also recorded: inhibited | ~1000 nM | < 1000 nM | > 35 µM | no cytotoxicity | > 32 µM | minimal cytotoxic effect | ~1000 nM | < 1000 nM |
